pIC50: −log10 of the molar value.
Experiments:
[1] = biological target: T1, AKT1 (S473) (Homo sapiens, UniProt P31749); experiment: Inhibitory effect on phosphorylation of LNcap cells AKT1 (S473); assay type: cell-based; conditions: 1 h incubation
T1 construct: endogenous in cells; host or cells: LNcap cells
Method: LNcap cells AKT1 (S473) growing at log phase were taken, digested with 1 mL of pancreatin for 3 min, and added with 4 mL of complete medium to terminate digestion. The cells were added to a centrifuge tube. 20 μL of cells were taken and counted, the required number of cells (mL) was taken and centrifuged at 1200 rpm for 5 min, and a plating medium (2% FBS+phenol-free red 1640 base medium+1% sodium pyruvate+1% glutamine) was added to adjust the cell density to about 1×10E6 cells/mL. The cells were plated (96 wells) at the above cell density (100 μL/well), and cultured in a cell incubator at 37° C., 5% CO2 overnight; the next day, according to the plate distribution, the corresponding compound was sprayed using a nanoliter pipettor and incubated for 1 h at 37° C. in a cell incubator containing 5% CO2; the supernatant was discarded, and the plate was added with 40 μL of lysis buffer (1×) containing blocking buffer and incubated by shaking at room temperature for 30 min. After the mixture was mixed, 16 μL of lysate was transferred to another 384-well small-volume white plate. The plate was added with 4 μL of pre-mixed antibody (v/v) in assay buffer, covered, centrifuged to mix well, and incubated overnight at room temperature. The 665 nm/620 nm signal value was detected using a PE Envision multi-functional microplate reader, and IC50 was calculated by four-parameter fitting.

[2] = test system: AN3CA human endometrial cancer cells; experiment: Pharmacodynamics in subcutaneous xenograft tumor nude mouse model of AN3CA human endometrial cancer cells; assay type: in vivo, BALB/C nude mice; conditions: for in vivo tumor inhibition effect (in words) / Relative tumor volume (mean ± SD) / Tumor volume (mm^3) (mean ± SD): AN3CA xenograft; for in vivo tumor inhibition effect (in words): 20 mg/kg i.g. qd; for Relative tumor volume (mean ± SD) / Tumor volume (mm^3) (mean ± SD) / Weight change rate (%) (mean ± SD) / TGI (%) / T/C (%): day 14, 20 mg/kg i.g. qd 14 d; for Weight change rate (%) (mean ± SD): body weight; for TGI (%): by tumor weight, ** p < 0.01 vs control; for T/C (%): relative tumor proliferation rate
Method: SPF-grade female BALB/C nude mice (from Changzhou Cavens Laboratory Animal Ltd.) were inoculated subcutaneously at the right side armpit with 5×10^6 AN3CA cells (sourec: Nanjing Cobioer Biosciences Co., Ltd.).
The day of grouping was determined as do, and the intragastric administration was started on the grouping day, and the administration volume was 10 mL/kg. The solvent was: D5W (5% glucose solution). The tumor volume was measured 2-3 times a week, meanwhile, the mice were weighed and the data were recorded; the general behavior of the mice was observed and recorded every day. After the experiment was completed, the tumors were removed, weighed and photographed.
Calculation formula for tumor volume: Tumor volume (mm^3)=½×(a×b^2) (where a represents long diameter and b represents short diameter).
Relative tumor proliferation rate (T/C %) refers to the percentage of the relative tumor volume of the treatment and control groups at a certain time point. The calculation formula is as follows: T/C %=TRTV/CRTV×100% (TRTv: mean relative tumor volume (RTV) for treatment group; CRTV: mean RTV for vehicle control group; RTV=TVt/TV0, where TV0 is the tumor volume at grouping, TVt is the tumor volume after treatment).
The calculation formula for weight change rate (WCR) (%) is: WCR=(Wtt−Wt0)/Wt0×100%, where Wt0 is the body weight of the animal at grouping (i.e., d0), Wtt is the body weight of the animal at each measurement.
All experimental results are expressed as mean±SD (mean±standard deviation). The relative tumor volume of the treatment group was compared with that of the control group for any significant difference by T tests, wherein p<0.01 indicates a very significant difference.

T1 sequence (P31749 whole entry): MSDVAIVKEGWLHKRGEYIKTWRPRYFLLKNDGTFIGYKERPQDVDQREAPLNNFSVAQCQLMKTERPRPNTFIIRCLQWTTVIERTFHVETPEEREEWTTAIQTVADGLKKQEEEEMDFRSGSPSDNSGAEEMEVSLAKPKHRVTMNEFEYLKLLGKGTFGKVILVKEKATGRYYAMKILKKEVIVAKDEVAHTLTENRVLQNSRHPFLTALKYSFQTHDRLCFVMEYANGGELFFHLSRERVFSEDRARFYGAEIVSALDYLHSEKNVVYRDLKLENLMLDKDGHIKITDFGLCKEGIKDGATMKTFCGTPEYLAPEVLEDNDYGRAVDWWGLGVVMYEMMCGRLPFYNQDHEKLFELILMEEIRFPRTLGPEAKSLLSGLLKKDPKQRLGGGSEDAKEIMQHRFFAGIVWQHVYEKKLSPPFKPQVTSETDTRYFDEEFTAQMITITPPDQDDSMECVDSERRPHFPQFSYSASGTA

SMILES	pIC50 [1]	in vivo tumor inhibition effect (in words) [2]	Relative tumor volume (mean ± SD) [2]	Tumor volume (mm^3) (mean ± SD) [2]	Weight change rate (%) (mean ± SD) [2]	TGI (%) [2] [%**]	T/C (%) [2] [%]
Nc1ncccc1-c1nc2ccc(-c3cccc(N4CCC(N5CCCC5=O)CC4)c3F)nc2n1-c1ccc(C2(N)CCC2)cc1 [Compound 30]	7.66	strong in vivo tumor inhibition effects	9.7 ± 2.2	1242 ± 354	2.3 ± 3.5	58.4	40.9
CC(=O)N1CC2(C1)CN(c1cccc(-c3ccc4nc(-c5cccnc5N)n(-c5ccc(C6(N)CCC6)cc5)c4n3)c1F)C2 [Compound 28]	7.55	strong in vivo tumor inhibition effects	10.5 ± 3.4	1267 ± 249	4.9 ± 2.7	53.2	44.3

Reference: patent US20230357242A1, “COMPOUND AS AKT KINASE INHIBITOR” (CHIA TAI TIANQING PHARMACEUTICAL GROUP CO., LTD., priority 2020, published 2023)
